Active and inactive are the calls of the source. No cut-off for these calls is given here.
Columns and labels:
Plasma [1] = assay: AUMClast in C57/BL6 mouse plasma at 3 mg/kg, iv administered as single dose; type: ADME, organism-based; conditions: in vivo
[2] = Initial plasma concentration in C57/BL6 mouse plasma at 3 mg/kg, iv administered as single dose; type: ADME, organism-based
Plasma [3] = assay: AUMClast in C57/BL6 mouse plasma at 30 mg/kg, po administered as single dose; type: ADME, organism-based; conditions: in vivo
[4] = Tmax in C57/BL6 mouse plasma at 30 mg/kg, po administered as single dose; type: ADME, organism-based
[5] = Cmax in C57/BL6 mouse plasma at 30 mg/kg, po administered as single dose; type: ADME, organism-based; design: dose 30 mg/kg, route oral
Heart [6] = assay: AUMClast in C57/BL6 mouse heart at 3 mg/kg, iv administered as single dose; type: ADME, organism-based; conditions: in vivo
Heart [7] = assay: AUMClast in C57/BL6 mouse heart at 30 mg/kg, po administered as single dose; type: ADME, organism-based; conditions: in vivo
[8] = Tmax in C57/BL6 mouse heart at 30 mg/kg, po administered as single dose; type: ADME, organism-based
[9] = biological target: T1, Relaxin receptor 1 (Mus musculus) (UniProt Q6R6I7); assay: Agonist activity at mouse RXFP1 receptor expressed in HEK293 cells assessed as stimulation of cAMP production incubated for 30 mins by TR-FRET based HTRF assay; type: functional, cell-based
T1 sequence (whole entry): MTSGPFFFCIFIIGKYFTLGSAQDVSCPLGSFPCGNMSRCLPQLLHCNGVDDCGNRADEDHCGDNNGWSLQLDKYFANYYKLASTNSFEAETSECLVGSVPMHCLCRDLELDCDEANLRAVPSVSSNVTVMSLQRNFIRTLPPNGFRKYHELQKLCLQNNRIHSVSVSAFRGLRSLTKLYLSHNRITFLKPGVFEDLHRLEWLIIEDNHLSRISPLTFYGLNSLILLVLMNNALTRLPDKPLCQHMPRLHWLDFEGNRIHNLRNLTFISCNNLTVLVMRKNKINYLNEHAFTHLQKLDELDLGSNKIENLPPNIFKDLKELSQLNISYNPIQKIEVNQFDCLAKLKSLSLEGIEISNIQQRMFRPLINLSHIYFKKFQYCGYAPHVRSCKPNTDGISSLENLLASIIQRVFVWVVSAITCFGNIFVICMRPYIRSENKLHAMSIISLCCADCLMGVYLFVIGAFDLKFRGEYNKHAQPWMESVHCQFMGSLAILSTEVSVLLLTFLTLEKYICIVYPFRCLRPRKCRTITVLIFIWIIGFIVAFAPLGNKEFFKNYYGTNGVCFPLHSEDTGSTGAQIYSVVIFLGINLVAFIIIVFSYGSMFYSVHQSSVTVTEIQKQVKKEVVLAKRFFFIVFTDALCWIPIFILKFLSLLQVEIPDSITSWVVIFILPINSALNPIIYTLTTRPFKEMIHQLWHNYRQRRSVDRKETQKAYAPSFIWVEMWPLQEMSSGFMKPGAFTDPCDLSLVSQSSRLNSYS

[10] = biological target: Relaxin receptor 2 (Mus musculus) (UniProt Q91ZZ5); assay: Agonist activity at mouse RXFP2 receptor expressed in HEK293 cells assessed as stimulation of cAMP production incubated for 30 mins by TR-FRET based HTRF assay; type: functional, cell-based
Sequence of Relaxin receptor 2 (Mus musculus) (Q91ZZ5 whole entry): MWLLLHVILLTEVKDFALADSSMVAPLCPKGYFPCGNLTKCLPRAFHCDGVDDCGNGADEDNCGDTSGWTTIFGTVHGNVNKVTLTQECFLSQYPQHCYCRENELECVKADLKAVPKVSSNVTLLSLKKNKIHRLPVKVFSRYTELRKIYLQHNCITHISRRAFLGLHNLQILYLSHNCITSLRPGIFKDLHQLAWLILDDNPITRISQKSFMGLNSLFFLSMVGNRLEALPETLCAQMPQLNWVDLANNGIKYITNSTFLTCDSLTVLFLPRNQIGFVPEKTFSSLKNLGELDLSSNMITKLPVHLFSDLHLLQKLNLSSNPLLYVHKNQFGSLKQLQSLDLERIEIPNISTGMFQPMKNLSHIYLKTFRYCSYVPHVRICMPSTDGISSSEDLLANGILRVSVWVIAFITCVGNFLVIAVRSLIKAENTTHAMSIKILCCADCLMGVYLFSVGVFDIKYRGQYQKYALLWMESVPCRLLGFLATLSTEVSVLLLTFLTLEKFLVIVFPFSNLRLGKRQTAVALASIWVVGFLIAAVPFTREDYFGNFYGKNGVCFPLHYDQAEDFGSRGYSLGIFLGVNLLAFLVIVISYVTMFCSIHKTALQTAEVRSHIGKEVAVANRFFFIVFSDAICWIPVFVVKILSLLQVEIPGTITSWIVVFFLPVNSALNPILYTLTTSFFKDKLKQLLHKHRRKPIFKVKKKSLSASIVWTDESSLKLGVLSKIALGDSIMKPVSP

[11] = biological target: T1, Relaxin receptor 1 (Mus musculus); assay: Agonist activity at mouse RXFP1 receptor M10 Ile646Val and Leu647Val mutant expressed in HEK293 cells assessed as stimulation of cAMP production incubated for 30 mins by TR-FRET based HTRF assay; type: functional, cell-based
[12] = biological target: T1, Relaxin receptor 1 (Mus musculus); assay: Agonist activity at mouse RXFP1 receptor M11 Asp659Gly and Ser660Thr mutant expressed in HEK293 cells assessed as stimulation of cAMP production at 66 uM incubated for 30 mins by TR-FRET based HTRF assay relative to relaxin; type: functional, cell-based; design: scale not given: the % may be the effect or the level left
[13] = biological target: T2, Relaxin receptor 1 (Macaca mulatta) (UniProt I2CTQ4); assay: Agonist activity at monkey RXFP1 receptor assessed as stimulation of cAMP production incubated for 30 mins by TR-FRET based HTRF assay; type: functional
T2 sequence (whole entry): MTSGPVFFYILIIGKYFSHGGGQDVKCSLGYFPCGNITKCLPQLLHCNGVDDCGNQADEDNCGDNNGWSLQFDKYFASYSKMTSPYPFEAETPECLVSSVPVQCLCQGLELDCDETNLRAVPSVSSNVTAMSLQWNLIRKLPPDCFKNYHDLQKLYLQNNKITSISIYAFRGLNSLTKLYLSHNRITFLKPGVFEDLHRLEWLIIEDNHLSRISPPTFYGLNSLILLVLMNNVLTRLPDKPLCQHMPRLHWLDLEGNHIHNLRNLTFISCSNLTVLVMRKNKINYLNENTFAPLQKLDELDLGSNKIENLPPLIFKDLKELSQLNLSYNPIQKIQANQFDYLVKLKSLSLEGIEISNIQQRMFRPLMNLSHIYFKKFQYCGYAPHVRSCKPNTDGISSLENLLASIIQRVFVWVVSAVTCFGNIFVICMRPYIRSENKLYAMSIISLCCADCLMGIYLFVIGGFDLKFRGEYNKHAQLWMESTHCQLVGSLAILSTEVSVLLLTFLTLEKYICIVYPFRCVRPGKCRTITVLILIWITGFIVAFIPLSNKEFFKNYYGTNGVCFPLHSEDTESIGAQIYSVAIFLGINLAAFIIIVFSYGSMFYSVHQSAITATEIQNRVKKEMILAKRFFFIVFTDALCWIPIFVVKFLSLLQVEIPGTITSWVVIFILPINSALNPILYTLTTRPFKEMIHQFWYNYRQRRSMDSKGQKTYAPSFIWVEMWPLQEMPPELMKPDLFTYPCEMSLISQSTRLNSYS

[14] = biological target: T3, Uncharacterized protein (Sus scrofa) (UniProt F1RW91); assay: Agonist activity at pig RXFP1 receptor assessed as stimulation of cAMP production incubated for 30 mins by TR-FRET based HTRF assay; type: functional
T3 sequence (whole entry): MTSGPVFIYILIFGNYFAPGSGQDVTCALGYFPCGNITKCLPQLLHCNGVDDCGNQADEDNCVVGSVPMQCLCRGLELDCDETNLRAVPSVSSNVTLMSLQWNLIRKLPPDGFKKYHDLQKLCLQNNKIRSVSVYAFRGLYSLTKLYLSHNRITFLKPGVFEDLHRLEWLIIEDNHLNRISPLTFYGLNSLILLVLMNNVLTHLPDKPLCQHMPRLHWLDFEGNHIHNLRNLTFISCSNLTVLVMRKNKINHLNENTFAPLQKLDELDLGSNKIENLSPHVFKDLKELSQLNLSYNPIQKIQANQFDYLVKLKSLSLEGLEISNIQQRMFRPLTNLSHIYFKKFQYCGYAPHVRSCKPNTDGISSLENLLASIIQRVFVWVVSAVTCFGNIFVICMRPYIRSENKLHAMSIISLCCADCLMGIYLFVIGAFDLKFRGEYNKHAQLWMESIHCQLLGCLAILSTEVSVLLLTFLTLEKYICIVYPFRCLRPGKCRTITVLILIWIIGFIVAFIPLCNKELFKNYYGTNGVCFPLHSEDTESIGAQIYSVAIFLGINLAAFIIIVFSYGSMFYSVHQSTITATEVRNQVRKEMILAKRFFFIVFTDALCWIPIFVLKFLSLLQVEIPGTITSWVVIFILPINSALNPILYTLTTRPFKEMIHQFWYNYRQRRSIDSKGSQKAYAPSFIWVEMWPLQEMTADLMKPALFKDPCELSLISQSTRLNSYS

CC(C)Oc1ccccc1C(=O)Nc1ccccc1C(=O)Nc1cccc(S(=O)(=O)C(F)(F)F)c1
AUMClast (Plasma [1]): 3110 hr.hr.ng/ml
C0 [2]: 499 ng/mL
AUMClast (Plasma [3]): 2990 hr.hr.ng/ml
Tmax [4]: 0.5 h
Cmax [5]: 306 ng/mL
AUMClast (Heart [6]): 28300 hr.hr.ng/ml
AUMClast (Heart [7]): 5780 hr.hr.ng/ml
Tmax [8]: 1.5 h
Activity [9]: inactive
Activity [10]: inactive
Activity [11]: inactive
Activity [12]: 44.4%
Activity [13]: Active
Activity [14]: Active
